As usually defined, the IC50 is the concentration needed to halve the response being measured.

Here are results for 32 molecules from patent publication US10647686B2, “Substituted pyrimidines for preventing or treating cancer and inflammatory diseases” (KOREA RESEARCH INSTITUTE OF CHEMICAL TECHNOLOGY, priority 2016, dated 2020).

Each structure is given as a SMILES string.

The target of one assay is DRAK2 (Homo sapiens (Human), UniProt O94768). Kind of assay: DRAK2 kinase activity inhibition (ADP-Glo, MRCL3 peptide substrate). The assay is classed as biochemical. As to conditions: for DRAK2 selectivity (DRAK2 versus DRAK1): from Table 4. On the procedure: (§1) DRAK1 and DRAK2 recombinant proteins were purchased from SignalChem Inc. To measure the kinase enzyme activity, the ADP-Glo™ kit provided by Promega Inc. was used. Buffer A used in the kinase reaction was composed of 60 mM Tris-Cl (pH 7.5), 30 mM MgCl2 and 0.15% BSA. Just before the experiment, 1 mM DTT was prepared by diluting 1 M solution and added thereto.
DRAK2, sequence (O94768 whole entry): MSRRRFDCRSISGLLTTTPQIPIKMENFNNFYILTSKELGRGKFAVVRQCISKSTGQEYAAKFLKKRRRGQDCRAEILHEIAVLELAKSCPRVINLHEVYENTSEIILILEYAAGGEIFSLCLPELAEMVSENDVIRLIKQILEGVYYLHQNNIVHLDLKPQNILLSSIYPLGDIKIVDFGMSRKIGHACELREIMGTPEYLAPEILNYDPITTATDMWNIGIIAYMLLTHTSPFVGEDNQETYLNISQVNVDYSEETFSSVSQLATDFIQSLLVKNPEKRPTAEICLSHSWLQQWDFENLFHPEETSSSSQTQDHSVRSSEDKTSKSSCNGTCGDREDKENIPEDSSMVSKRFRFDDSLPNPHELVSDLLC
(§2) To measure the DRAK1 and DRAK2 activity, the substrate MRCL3 peptide and ATP were mixed with the enzymes. After an appropriate period of time, the reaction product ADP was quantitatively analyzed.
(§3) The buffer solution A was used to make a 3× substrate solution of 3× concentration so that the final concentrations of ATP and MRCL3 peptides were 1 uM, respectively, and 2.5 μl of each solution was dispensed into Optiplate 384 (perkin-elmer) microplate.
(§4) The final concentrations of ATP and MRCL3 peptide were made to be 1 uM respectively by using buffer A, followed by preparing a 3× substrate solution. The prepared substrate solution was distributed in Optiplate 384 (Perkin-Elmer) microplate (2.5 ul/well). Then, the compounds of Examples 1˜39 and the compounds of Comparative Examples 1-6, whose concentrations were tripled by the final concentration were distributed thereto (2.5 ul/well). Lastly, DRAK1 or DRAK2 enzyme solution, properly diluted by using buffer A, was added thereto (2.5 ul/well). Centrifugation was performed at 800 rpm for 1 minute, and then enzyme reaction was induced at 30° C.
(§5) 2 hours later, the enzyme reaction was terminated. To eliminate residual ATP, ADP-Glo™ reagent contained in ADP-Glo™ was added to each well at the concentration of 7.5 ul, which was the same amount as the sum of the previously added reagents, followed by centrifugation at the same RPM and time as the above. Additional reaction was induced at room temperature for 40 minutes. To convert the ADP produced by the kinase activity to ATP, 15 ul of kinase detection buffer was added to each well, followed by centrifugation. Five minutes after the centrifugation was completed, the luminescence value of the reaction product was determined using Envision, and the enzyme activity inhibition effect of the compound was measured. Then, IC50 of each compound was determined using Prism program.
(§6) The compounds of Example 1 and Example 19 were used as the experimental group and the compound of Comparative Example 6 was used as the control.
To evaluate DRAK2 inhibition activity of the compound represented by formula 1 according to the number of n, the experiment was performed with the compounds of Example 1, Example 19, Example 40, Comparative Example 7 and W Comparative Example 8 by the same manner as described in Experimental Example 1, leading to the measurement of IC50 to DRAK2.
In general terms: ADP-Glo turns the ADP formed in a reaction into a luminescent signal.

Another assay addresses DRAK1 (Homo sapiens (Human), UniProt Q9UEE5). Kind of assay: DRAK1 kinase activity inhibition (ADP-Glo, MRCL3 peptide substrate). In kind it is biochemical. On the procedure:
as §1, §2, §3, §4, §5, §6

Where [1] appears, read: Table 3, recombinant enzyme, 1 uM ATP, 1 uM MRCL3 peptide, 30° C., 2 hours.
Setting [2] is: Table 4, Experimental Example 2, DRAK2 selectivity evaluation.
[3] abbreviates: Table 5, Experimental Example 3, according to the number of n.

DRAK1, sequence (Q9UEE5 whole entry): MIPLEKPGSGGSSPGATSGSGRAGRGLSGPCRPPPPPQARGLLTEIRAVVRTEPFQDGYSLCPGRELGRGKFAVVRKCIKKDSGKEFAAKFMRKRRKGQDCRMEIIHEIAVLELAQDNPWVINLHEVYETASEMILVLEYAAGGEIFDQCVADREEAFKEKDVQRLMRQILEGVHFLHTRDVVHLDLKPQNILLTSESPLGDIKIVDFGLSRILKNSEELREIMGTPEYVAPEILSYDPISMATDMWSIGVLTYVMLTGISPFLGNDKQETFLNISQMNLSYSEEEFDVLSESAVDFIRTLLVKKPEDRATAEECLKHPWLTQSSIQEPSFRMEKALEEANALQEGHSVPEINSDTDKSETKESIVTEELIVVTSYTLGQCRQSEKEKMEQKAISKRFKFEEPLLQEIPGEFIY

On to `NCCCNc1nc(Nc2ccc(Cl)cc2)ncc1F` [Comparative Example 1, N4-(3-aminopropyl)-N2-(4-chlorophenyl)-5-fluoropyrimidine-2,4-diamine, reference compound], for which the IC50 on DRAK2 (setting [1]) was determined as 300 nM. `NCCCNc1nc(Nc2ccc(Cl)cc2)ncc1C(F)(F)F` [Comparative Example 2, N4-(3-aminopropyl)-N2-(4-chlorophenyl)-5-(trifluoromethyl)pyrimidine-2,4-diamine, reference compound]: the IC50 on DRAK2 (setting [1]) was determined as 120 nM. On the same count and under the same terms, for `COc1cnc(Nc2ccc(Cl)cc2)nc1NCCCN` [Comparative Example 3, N4-(3-aminopropyl)-N2-(4-chlorophenyl)-5-methoxypyrimidine-2,4-diamine, reference compound] the value was 870 nM. Same read-out and setting: for `NCCCNc1ccnc(Nc2ccc(Cl)cc2)n1` [Comparative Example 4, N4-(3-aminopropyl)-N2-(4-chlorophenyl)pyrimidine-2,4-diamine, reference compound] the value was 1100 nM; for `NCCCNc1nc(Nc2ccc(Cl)cc2)ncc1[N+](=O)[O-]` [Comparative Example 5, N4-(3-aminopropyl)-N2-(4-chlorophenyl)-5-nitropyrimidine-2,4-diamine, reference compound], 320 nM.

Consider `NCCCNc1nc(Nc2ccc(Cl)cc2)ncc1Br` [Comparative Example 6, reference compound], for which the IC50 on DRAK1 (setting [1]) is 40 nM; against DRAK1 (setting [2]), 40 nM; at DRAK2 (setting [1]) it was 27 nM; against DRAK2 (setting [2]) it was 27 nM. In addition, the “DRAK2 selectivity (DRAK2 versus DRAK1)” value on DRAK2 (result in words) is “displayed both DRAK1 and DRAK2 inhibition activity”. In the case of `NCCNc1nc(Nc2ccc(Cl)cc2)ncc1Cl` [Comparative Example 7, N4-(2-aminoethyl)-5-chloro-N2-(4-chlorophenyl)pyrimidine-2,4-diamine, reference compound], half-maximal inhibition against DRAK2 (setting [3]) (IC50) was put at 110 nM. `Cc1cnc(Nc2ccc(Cl)cc2)nc1NCCN` [Comparative Example 8, N4-(2-aminoethyl)-N2-(4-chlorophenyl)-5-methylpyrimidine-2,4-diamine, reference compound] yielded an IC50 on DRAK2 (setting [3]) of 140 nM.

As for `NCCCNc1nc(Nc2ccc(Cl)cc2)ncc1Cl` [Example 1, N4-(3-aminopropyl)-5-chloro-N2-(4-chlorophenyl)pyrimidine-2,4-diamine], the IC50 at DRAK1 (setting [1]) was 410 nM; against DRAK1 (setting [2]), 410 nM; at DRAK2 (setting [1]) it was 38 nM; against DRAK2 (setting [2]), 38 nM; against DRAK2 (setting [3]) it was 32 nM. Further, at DRAK2 (result in words), the “DRAK2 selectivity (DRAK2 versus DRAK1)” value is listed as “excellent DRAK2 selectivity”. For the same molecule, the “DRAK2 IC50 compared with Comparative Examples 7 and 8 (n is 0)” value at DRAK2 (result in words, from Table 5) was “significantly lower IC50”.

As to `NCCCNc1nc(Nc2cc(Cl)cc(Cl)c2)ncc1Cl` [Example 2, N4-(3-aminopropyl)-5-chloro-N2-(3,5-dichlorophenyl)pyrimidine-2,4-diamine], the IC50 at DRAK2 (setting [1]) was 26 nM. Consider `CC(C)c1ccc(Nc2ncc(Cl)c(NCCCN)n2)cc1` [Example 3, N4-(3-aminopropyl)-5-chloro-N2-(4-isopropylphenyl)pyrimidine-2,4-diamine], for which the results for the half-inhibitory concentration (IC50) at DRAK1 (setting [1]) and at DRAK2 (setting [1]) were 240 nM and 11 nM, respectively. As to `CCCCCc1ccc(Nc2ncc(Cl)c(NCCCN)n2)cc1` [Example 4, N4-(3-aminopropyl)-5-chloro-N2-(4-pentylphenyl)pyrimidine-2,4-diamine], the IC50 at DRAK2 (setting [1]) amounted to 80 nM. Take `CCCCCCCCc1ccc(Nc2ncc(Cl)c(NCCCN)n2)cc1` [Example 5, N4-(3-aminopropyl)-5-chloro-N2-(4-octylphenyl)pyrimidine-2,4-diamine]: at DRAK2 (setting [1]), the IC50 was determined as 740 nM. Regarding `Cc1ccc(Nc2ncc(Cl)c(NCCCN)n2)cc1Cl` [Example 6, N4-(3-aminopropyl)-5-chloro-N2-(3-chloro-4-methylphenyl)pyrimidine-2,4-diamine], the IC50 on DRAK1 (setting [1]) is 220 nM; on DRAK2 (setting [1]), 24 nM. `NCCCNc1nc(Nc2ccc(F)c(Cl)c2)ncc1Cl` [Example 7, N4-(3-aminopropyl)-5-chloro-N2-(3-chloro-4-fluorophenyl)pyrimidine-2,4-diamine]: the results for the IC50 at DRAK1 (setting [1]) and on DRAK2 (setting [1]) were 200 nM and 70 nM, respectively. Consider `NCCCNc1nc(Nc2ccc(Cl)c(Cl)c2)ncc1Cl` [Example 8, N4-(3-aminopropyl)-5-chloro-N2-(3,4-dichlorophenyl)pyrimidine-2,4-diamine], for which the figures for the IC50 at DRAK1 (setting [1]) and on DRAK2 (setting [1]) were 310 nM and 59 nM, respectively. Taken in the same sequence, the figures for `NCCCNc1nc(Nc2ccc(F)cc2)ncc1Cl` [Example 9, N4-(3-aminopropyl)-5-chloro-N2-(4-fluorophenyl)pyrimidine-2,4-diamine] were 290 nM and 19 nM. On to `NCCCNc1nc(Nc2ccc(C3CCNCC3)cc2)ncc1Cl` [Example 26, N4-(3-aminopropyl)-5-chloro-N2-(4-(piperidine-4-yl)phenyl)pyrimidine-2,4-diamine], for which the IC50 on DRAK2 (setting [1]) was 19 nM. Same read-out and setting: with `Cc1ccc(Nc2ncc(C)c(NCCCN)n2)cc1Cl` [Example 27, N4-(3-aminopropyl)-N2-(3-chloro-4-methylphenyl)-5-methylpyrimidine-2,4-diamine] the figure was 98 nM; with `Cc1cnc(Nc2ccc(F)cc2)nc1NCCCN` [Example 28, N4-(3-aminopropyl)-N2-(4-fluorophenyl)-5-methylpyrimidine-2,4-diamine], 190 nM. Same read-out and setting: for `Cc1cnc(Nc2ccc(N3CCNCC3)cc2)nc1NCCCN` [Example 29, N4-(3-aminopropyl)-5-methyl-N2-(4-(piperazine-1-yl)phenyl)pyrimidine-2,4-diamine] the value was 100 nM. On the same count and under the same terms, with `Cc1cnc(Nc2ccc3c(c2)CCCC3)nc1NCCCN` [Example 30, N4-(3-aminopropyl)-5-methyl-N2-(5,6,7,8-tetrahydronaphthalene-2-yl)pyrimidine-2,4-diamine] the figure was 160 nM.

For `Cc1cnc(Nc2ccc(F)c(C(F)(F)F)c2)nc1NCCCN` [Example 31, N4-(3-aminopropyl)-N2-(4-fluoro-3-(trifluoromethyl)phenyl)-5-methylpyrimidine-2,4-diamine], the half-inhibitory concentration (IC50) on DRAK2 (setting [1]) stood at 180 nM. For `Cc1cnc(Nc2ccc(Br)c(C(F)(F)F)c2)nc1NCCCN` [Example 32, N4-(3-aminopropyl)-N2-(4-bromo-3-(trifluoromethyl)phenyl)-5-methylpyrimidine-2,4-diamine], the concentration for half-maximal inhibition (IC50) on DRAK2 (setting [1]) stood at 1400 nM. In the case of `Cc1cnc(Nc2ccc(Oc3ccccc3)cc2)nc1NCCCN` [Example 33, N4-(3-aminopropyl)-5-methyl-N2-(4-phenoxyphenyl)pyrimidine-2,4-diamine], on DRAK2 (setting [1]), the 50% inhibitory concentration (IC50) came out at 490 nM. Consider `Cc1cnc(Nc2ccc(S(=O)(=O)c3ccc([N+](=O)[O-])cc3)cc2)nc1NCCCN` [Example 34, N4-(3-aminopropyl)-5-methyl-N2-(4-(4-nitrophenylsulfonyl)phenyl)pyrimidine-2,4-diamine], for which the IC50 at DRAK2 (setting [1]) amounted to 340 nM.

Regarding `Cc1cnc(Nc2ccc(Br)cc2)nc1NCCCN` [Example 35, N4-(3-aminopropyl)-N2-(4-bromophenyl)-5-methylpyrimidine-2,4-diamine], the IC50 at DRAK2 (setting [1]) is 89 nM.

As for `Cc1cnc(Nc2ccc3c(c2)OCCO3)nc1NCCCN` [Example 36, N4-(3-aminopropyl)-N2-(2,3-dihydrobenzo[b][1,4]dioxin-6-yl)-5-methylpyrimidine-2,4-diamine], the IC50 on DRAK2 (setting [1]) came out at 110 nM. The same measure, in the same setting: with `Cc1ccc(Nc2ncc(C)c(NCCCN)n2)cc1C` [Example 37, N4-(3-aminopropyl)-N2-(3,4-dimethylphenyl)-5-methylpyrimidine-2,4-diamine] the figure was 82 nM; with `Cc1cnc(Nc2ccc(F)c(Cl)c2)nc1NCCCN` [Example 38, N4-(3-aminopropyl)-N2-(3-chloro-4-fluorophenyl)-5-methylpyrimidine-2,4-diamine], 35 nM; with `Cc1cnc(Nc2ccc(Cl)c(Cl)c2)nc1NCCCN` [Example 39, N4-(3-aminopropyl)-N2-(3,4-dichlorophenyl)-5-methylpyrimidine-2,4-diamine], 75 nM. The same measure, in the same setting: with `NCCCCNc1nc(Nc2cc(Cl)cc(Cl)c2)ncc1Cl` [Example 41, N4-(4-n-aminobutyl)-N2-(3,5-dichlorophenyl)-5-chloropyrimidine-2,4-diamine] the figure was 31 nM.
